Earlier results, collected in paper PMC10664590 (Chemical Science, 2023).

long-wavelength absorption maximum: around 330 nm | fluorescence maximum (in ethanol): around 380 nm
Compound: O=c1ccc2ccc(O)cc2o1 [7-hydroxy-cumarine]
